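Step 1: Grow cells in 96-well plates. Step 2: Expose to compound for 48 hours at 5 concentrations. Step 3: Interpolate endpoints linearly; if unreached, use highest concentration. The concentration for 50% growth inhibition is given as GI50.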 Activity calls are given as the source filed them. Rule as the data show it: active = GI50 up to about 1.1 µM and inactive = higher.
Assays:
Test in all cases: DTP human tumour cell line panel, 48 h
[1] = tested on: NCI/ADR-RES
[2] = tested on: MDA-MB-231
[3] = tested on: SR
[4] = tested on: OVCAR-8
[5] = tested on: T47D
[6] = tested on: SF-268
[7] = tested on: SN12C
[8] = tested on: HT-29
[9] = tested on: OVCAR-3
[10] = tested on: RXF 393
[11] = tested on: Malme-3M
[12] = tested on: NCI-H23
[13] = tested on: EKVX
[14] = tested on: OVCAR-5
[15] = tested on: MOLT-4
[16] = tested on: MCF7
[17] = tested on: RPMI-8226

| Structure (SMILES) | GI50 [1] | GI50 [2] | GI50 [3] | GI50 [4] | GI50 [5] | GI50 [6] | GI50 [7] | GI50 [8] | GI50 [9] | GI50 [10] | GI50 [11] | GI50 [12] | GI50 [13] | GI50 [14] | GI50 [15] | GI50 [16] | GI50 [17] |
| --- | --- | --- | --- | --- | --- | --- | --- | --- | --- | --- | --- | --- | --- | --- | --- | --- | --- |
| Nc1nc(SCCc2ccccc2)c2nc[nH]c2n1 | 51.2 µM (inactive) | 51.1 µM (inactive) | 36.2 µM (inactive) | 95.9 µM (inactive) | 40.9 µM (inactive) | 46.6 µM (inactive) | 39.4 µM (inactive) | 41.1 µM (inactive) | 45.1 µM (inactive) | 60.4 µM (inactive) | 64.9 µM (inactive) | 69.5 µM (inactive) | 25.2 µM (inactive) | 72.3 µM (inactive) | 33.6 µM (inactive) |  |  |
| CC#CS(=O)(=O)c1ccccc1 | 10.4 µM (inactive) | 10.6 µM (inactive) |  | 3.02 µM (inactive) | 2.33 µM (inactive) | 15.9 µM (inactive) | 6.32 µM (inactive) | 3.67 µM (inactive) | 1.63 µM (inactive) | 14.2 µM (inactive) | 2.88 µM (inactive) | 5.2 µM (inactive) | 18.6 µM (inactive) | 5.58 µM (inactive) | 0.253 µM (active) | 6.87 µM (inactive) |  |
| CCOC(=O)CSc1[nH]c(NC(=S)Nc2ccccc2)c(C(N)=O)c1C(N)=O |  | > 10 µM (inactive) | 3.67 µM (inactive) | > 10 µM (inactive) | > 10 µM (inactive) | > 10 µM (inactive) | > 10 µM (inactive) | > 10 µM (inactive) |  | > 10 µM (inactive) | > 10 µM (inactive) | > 10 µM (inactive) | > 10 µM (inactive) |  | 6.21 µM (inactive) | > 10 µM (inactive) | > 10 µM (inactive) |
| c1ccc2c3nnc(c2c1)SCCSCCCSCCS3 | 75.3 µM (inactive) | 22.1 µM (inactive) |  | 56.9 µM (inactive) | > 100 µM (inactive) | 43.5 µM (inactive) | 53.8 µM (inactive) | > 100 µM (inactive) | 38 µM (inactive) | 38.5 µM (inactive) | 29.6 µM (inactive) | > 100 µM (inactive) | > 100 µM (inactive) | > 100 µM (inactive) |  | > 100 µM (inactive) |  |
| COc1ccc(-c2c(C(C)=O)c(-c3ccccc3)n(C3OC(CO)C(O)C(O)C3O)c(=S)c2C#N)cc1 (stereo not drawn) | > 100 µM (inactive) | > 100 µM (inactive) |  | > 100 µM (inactive) | > 100 µM (inactive) | > 100 µM (inactive) | > 100 µM (inactive) | > 100 µM (inactive) | > 100 µM (inactive) | > 100 µM (inactive) | > 100 µM (inactive) | > 100 µM (inactive) | > 100 µM (inactive) | > 100 µM (inactive) | > 100 µM (inactive) | > 100 µM (inactive) |  |
| COI1NC(=O)c2ccccc21 | > 100 µM (inactive) | > 100 µM (inactive) | > 100 µM (inactive) | > 100 µM (inactive) |  | > 100 µM (inactive) | > 100 µM (inactive) | > 100 µM (inactive) | > 100 µM (inactive) |  | > 100 µM (inactive) | > 100 µM (inactive) | > 100 µM (inactive) | > 100 µM (inactive) | > 100 µM (inactive) | > 100 µM (inactive) | > 100 µM (inactive) |
| CC1=C[C@H](O)[C@@]2(C)[C@@H]([C@@H]1C)[C@H]1CC[C@@H]3[C@@]4(C)CC[C@H](O)C(C)(C)[C@@H]4CC[C@@]3(C)[C@]1(C)C[C@@H]2O | 19.8 µM (inactive) | 20.3 µM (inactive) |  | 20.6 µM (inactive) | 14.3 µM (inactive) | 10.5 µM (inactive) | 15.2 µM (inactive) | 13.8 µM (inactive) | 16.8 µM (inactive) | 17.6 µM (inactive) | 20.6 µM (inactive) | 23.1 µM (inactive) | 12.4 µM (inactive) | 15.6 µM (inactive) | 13.7 µM (inactive) |  |  |
| CCOC(=O)NC(C(=O)OCC)C(F)(F)F (stereo not drawn) | > 100 µM (inactive) | > 100 µM (inactive) | 48.4 µM (inactive) | > 100 µM (inactive) |  | > 100 µM (inactive) | > 100 µM (inactive) | > 100 µM (inactive) | > 100 µM (inactive) |  | > 100 µM (inactive) | > 100 µM (inactive) | > 100 µM (inactive) | > 100 µM (inactive) | 93.8 µM (inactive) | > 100 µM (inactive) | 57 µM (inactive) |
| O=C(O)C(O)(c1ccc(-c2ccccc2)cc1)c1ccc(-c2ccccc2)cc1 | 24.5 µM (inactive) | 28.3 µM (inactive) | 47.5 µM (inactive) | 32.5 µM (inactive) | 41.6 µM (inactive) | 24.3 µM (inactive) | 22 µM (inactive) | 30.2 µM (inactive) | 15 µM (inactive) | 22 µM (inactive) | 23.1 µM (inactive) | 18.9 µM (inactive) | 24.3 µM (inactive) | 26.7 µM (inactive) | 42.2 µM (inactive) |  | 56.6 µM (inactive) |

From ChEMBL document CHEMBL1201862, “PubChem BioAssay data set” (2004)
